Laboratory results: US7001587B2, “Measurement of protein synthesis rates in humans and experimental systems by use of isotopically labeled water” (The Regents of the University of California, priority 2001, dated 2006)
Like-named read-outs stand apart in the source and are kept apart here.

What was measured:
[1] = cited from earlier work
bone collagen = test: Bone collagen synthesis rate (ks) in ovariectomized rats by ^2H2O labeling; assay type: in vivo; conditions: ovariectomized female rats, pellet 200 μg
Protocol: The fractional synthesis or replacement rate (ks) of proteins or peptides may be determined by application of the continuous labeling, precursor-product formula: [formula] where A^∞ represents the asymptotic or plateau value of the amino acid I.E. (isotopic enrichment) possible under the labeling conditions present and AA(protein)t represents the measured protein-bound amino acid at time t.
Ovariectomy was performed in adult female rodents as described (9). After allowing 3 weeks for recovery from surgery, the rats received either estradiol by subcutaneous pellet (200 μg) or sham placement of pellet. ^2H2O labeling was initiated at the time of pellet placement and continued for 2 weeks, at which time the animals were sacrificed and bone was collected.
Rats were killed every 1–2 weeks during a 10-week period of ^2H2O administration. The rear left femur was collected and was dissected free of soft tissue. Bone marrow and trabecular bone were removed using a needle with sharp cutting surface (ref: Bone 2000). After washing 3 times with water, the bone was splintered and powdered under liquid N2 in a Spex mill and defatted with chloroform:methanol (1:1, v:v). After drying, the powdered bone was subjected to acid hydrolysis in 6N HCl (110° C., 24 hr). The free AA were dried under N2 gas and derivatized for analysis by gas chromatography/mass spectrometry (GC/MS). […]

[2] = In vitro ^2H label exchange / label stability studies; assay type: physicochemical; conditions: acid-hydrolysis conditions used for proteins (6N HCl)
human subjects = test: Tolerability of daily oral ^2H2O in human subjects; assay type: in vivo; conditions: human subjects (healthy and HIV/AIDS) drinking 50–100 ml daily for 10–12 weeks
rats = test: Tolerability of 4% ^2H2O drinking water in rats; assay type: in vivo; conditions: rats given 4% ^2H2O as drinking water
[3] = tested on: humans and experimental animals; test: Long-term maintenance of high body water ^2H2O enrichment, toxicity; assay type: in vivo; conditions: 1–5% of total body water labeled, weeks or months, >100 people and experimental animals
Source text: Relatively high body water enrichments of ^2H2O (e.g., 1–5% of the total body water is labeled) have been achieved using the techniques of the invention. […] This finding in a large number of human subjects (>100 people) is contrary to previous concerns about vestibular toxicities at high doses of ^2H2O. Applicants have discovered that as long as rapid changes in body water enrichment are prevented (e.g., by initial administration in small, divided doses), high body water enrichments of ^2H2O can be maintained with no toxicities. Previous dosing of ^2H2O in humans, for other purposes (e.g., measurement of fatty acid or cholesterol synthesis or gluconeogenesis) have typically used lower doses and achieved lower body water enrichment. The low expense of commercially available ^2H2O allows long-term maintenance of enrichments in the 1–5% range at relatively low expense (e.g., lower cost for 2 months labeling at 2% ^2H2O enrichment, and thus 7–8% enrichment in the alanine precursor pool (FIGS. 2A–B), than for 12 hours labeling of ^2H-leucine at 10% free leucine enrichment, and thus 7–8% enrichment in leucine precursor pool for that period).

[4] = rat, in vivo
Source text: The ^2H2O labeling protocol consisted of an initial intraperitoneal (ip) injection of 99.9% ^2H2O, to achieve ca. 2.5% body water enrichment (assuming total body water to be 60% of body weight) followed by administration of 4% ^2H2O in drinking water. For labeling of rats in utero, 4% drinking water was started while the male and female adult rats were housed together for mating (i.e. before pregnancy) and the 4% ^2H2O drinking water was continued through the pregnancy and post-delivery period.
The ^2H2O enrichment of body water was measured by a GC/MS technique that we have described elsewhere (Neese et al., Analytic Biochem 298(2):189–95, 2001). Briefly, the hydrogen atoms from water (10 μL) were chemically transferred to acetylene by reaction with calcium carbide in a sealed vial. Acetylene gas was then derivatized by injection into another sealed vial containing 0.5 ml Br2 (0.1 mM) dissolved in CCl4, followed by quenching of remaining Br2 with cyclohexene. The resulting tetrabromoethane was dissolved in CCl4 and was analyzed by GC/MS, using a DB-225 column (30 m, J&W, Folsom, Calif.) at 180° C., with methane chemical ionization (C.I.). The ions at m/z 265 and 266 were analyzed using selected ion monitoring. These ions represent the M0 and M1 mass isotopomers of the C2H2Br3^+ fragment (^79Br^79Br^81Br isotopologue). The enrichments of ^2H2O in water samples were calculated by comparison to standard curves generated by mixing 100% ^2H2O with unlabeled H2O in known proportions (Neese et al., Analytic Biochem 298(2):189–95, 2001).

Question: With ^2H-glucose as the compound, how does the half-life ([1]; in vivo) read?
Answer: The half-life was 20 min.

Question: With C[C@]12CC[C@@H]3c4ccc(O)cc4CC[C@H]3[C@@H]1CC[C@@H]2O [estrogen, estradiol] as the compound, how does the “ks of bone collagen” value (bone collagen; 2 weeks ^2H2O labeling) read?
Answer: The value was 0.008 day⁻¹.

Question: And the “decrease in ks of bone collagen” value (bone collagen; 2 weeks, compared to vehicle-implanted ovariectomized rats)?
Answer: The value was 35–40%.

Question: For [2H]C([2H])(N)C(=O)O [^2H2-labeled glycine], which “loss of ^2H-label” value [2] is on record?
Answer: Its value is “no loss of ^2H-label was observed”.

Question: Which “adverse effects or toxicities” value (human subjects) does the source give for [2H]O[2H] [^2H2O] here?
Answer: The value was “No adverse effects or toxicities were observed”.

Question: What about the “growth and signs of toxicity” value (rats) of the same compound?
Answer: The value was “grew normally and exhibited no signs of toxicity”.

Question: And the “toxicity at maintained body water enrichment” value [3]?
Answer: The value was “without any evidence of toxicity”.

Question: And the “Body ^2H2O Enrichment (%)” value [4]?
Answer: The value was 2.6%.

Question: And the “measured ^2H2O enrichment in maternal blood” value [4]?
Answer: The value was 2.4%.

Question: And the half-life ([1]; turnover of body water pool)?
Answer: Its half-life is 14400 to 20200 min.

Question: For [2H]C(C)(N)C(=O)O (stereo not drawn) [^2H1-labeled alanine], which “loss of ^2H-label” value [2] is on record?
Answer: Its value is “no loss of ^2H-label was observed”.

Question: For ^2H-leucine, which half-life ([1]; in vivo) is on record?
Answer: Its half-life is < 30 min.
